Patent US20140005103A1, “SULFONAMIDE DERIVATIVES AND METHODS OF USE THEREOF FOR IMPROVING THE PHARMACOKINETICS OF A DRUG” (Merck, Sharp & Dohme Corp., priority 2012, published 2014)
pIC50: −log10 of the molar value.

What was measured:
[1] = target: CYP3A4 (Homo sapiens, UniProt P08684); experiment: IC50 vs CYP3A by inhibition of lopinavir metabolism in human liver microsomes; assay type: biochemical; settings: pH 7.4, human liver microsomes, 1.5 μM lopinavir, 8 min at 37° C., test concentrations 0.098-100 nM, read-out: 3A4(LPV)
CYP3A4, sequence (P08684 2-503): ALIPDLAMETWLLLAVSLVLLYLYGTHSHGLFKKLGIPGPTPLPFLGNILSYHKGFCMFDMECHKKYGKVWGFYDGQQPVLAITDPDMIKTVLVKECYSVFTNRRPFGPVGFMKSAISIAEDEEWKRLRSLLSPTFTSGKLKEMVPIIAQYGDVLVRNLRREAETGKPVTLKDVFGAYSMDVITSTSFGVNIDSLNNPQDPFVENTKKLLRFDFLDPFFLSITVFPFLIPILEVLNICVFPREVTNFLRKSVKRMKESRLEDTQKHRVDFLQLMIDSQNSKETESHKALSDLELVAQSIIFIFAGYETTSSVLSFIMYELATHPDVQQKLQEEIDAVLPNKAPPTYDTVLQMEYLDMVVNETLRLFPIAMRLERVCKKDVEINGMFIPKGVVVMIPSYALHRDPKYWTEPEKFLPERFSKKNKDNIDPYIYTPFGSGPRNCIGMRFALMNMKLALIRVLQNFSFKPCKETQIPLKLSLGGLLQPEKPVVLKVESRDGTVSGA
Protocol: Determination of IC50 vs CYP3A by Measurement of Inhibition of Lopinavir Metabolism
This assay was performed in a standard 96-well plate design. IC50 values were calculated from the percent inhibition observed for each test compound at 6 concentrations (for example, 0.098, 0.391, 1.56, 6.25, 25 and 100 nM). The incubation substrate mix contains 1.5 μM lopinavir, 0.01 mg/mL protein human liver microsomes (BD Gentest), 1 mM NAPDH, 3.3 mM MgCl2 and 100 mM potassium phosphate buffer (pH 7.4). The production of the sum of three hydroxylated metabolites (M2: 6-hydroxy lopinavir, M3: 4-hydroxy lopinavir, M4: 4-hydroxy lopinavir (epimer of M3), Kumar et al., 1999) was determined after incubation for 8 min at 37° C. Quantitation of the metabolite peak area ratio against an internal standard (tolbutamide) was determined by LC/MS/MS analysis following acetonitrile treatment of the incubations.
(§1) Samples were analyzed in the MRM mode with a SCIEX API-4000 mass spectrometer (Applied Biosystems, Foster City, Calif.), with a Shimadzu LC-20 AD pump (Shimadzu corporation, Kyoto, JP) and a CTC PAL autosampler (Agilent Technologies, Switzerland). A Phenomenex, Luna, 5 μm, 100 A, 2.00×30 mm HPLC column was used for the separation. The mobile phases were: (A) 0.1% formic acid in water and (B) 0.1% formic acid in acetonitrile. The binary gradient was as follows.
(§2) The peak area ratio of the analyte to the internal standard was used to quantify the metabolite. The values of peak area ratios in the presence of test compound were compared to those of maximum or minimum controls and were expressed as % inhibition by interpolating between the maximum and minimum peak area ratios. Incubations with no inhibitor were defined as the maxima and with 5 μM ketoconazole were defined as the minima
(§3) The following equation was used to calculate the % inhibition:
(§4) [1−[(X−Low control)/(High control−Low control)]]*100
(§5) For the IC50 calculation, SigmaPlot was used to plot the mean % inhibition versus the test compound concentrations and for non-linear regression analysis of the data. Depending on the range of data points defining the inhibition curve, the data may have been fit to the 4-parameter logistic equation.

[2] = target: T1, CYP2C9 (Homo sapiens, UniProt P11712); experiment: Cocktail CYP assay, diclofenac 4'-hydroxylation; assay type: in vitro ADME; settings: human liver microsomes, 5 μM diclofenac; test concentrations up to 10 μM
T1 construct: 0.1 mg/mL protein human liver microsomes (BD Gentest); tissue BD Gentest; host or cells: human liver microsomes
T1 sequence (P11712 whole entry): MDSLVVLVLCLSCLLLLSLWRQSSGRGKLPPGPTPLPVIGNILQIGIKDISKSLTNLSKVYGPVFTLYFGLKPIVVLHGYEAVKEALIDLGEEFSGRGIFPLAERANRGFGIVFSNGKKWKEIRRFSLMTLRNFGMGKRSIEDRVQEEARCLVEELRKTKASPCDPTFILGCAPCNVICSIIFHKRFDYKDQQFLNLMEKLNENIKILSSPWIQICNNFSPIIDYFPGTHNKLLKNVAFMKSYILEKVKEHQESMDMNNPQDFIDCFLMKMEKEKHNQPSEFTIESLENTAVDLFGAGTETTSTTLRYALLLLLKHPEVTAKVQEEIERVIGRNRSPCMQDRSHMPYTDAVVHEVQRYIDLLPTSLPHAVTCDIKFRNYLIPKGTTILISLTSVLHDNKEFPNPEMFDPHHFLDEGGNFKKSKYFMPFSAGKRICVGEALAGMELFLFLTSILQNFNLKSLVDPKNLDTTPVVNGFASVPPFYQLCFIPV
Protocol: Determination of IC50 in a Cocktail Assay for CYPs 1A2, 2C9, 2C19, 2D6 and 3A4
This assay was performed in a standard 96-well plate design. IC50 values were calculated from the percent inhibition observed for each test compound at 6 concentrations (for example, 0.0032, 0.016, 0.08, 0.4, 2 and 10 μM). The incubation substrate mix contains 10 μM phenacetin (1A2), 5 μM diclofenac (2C9), 30 μM mephenyloin (2C19), 5 μM dextromethorphan (2D6) and 2 μM midazolam (3A4), 0.1 mg/mL protein human liver microsomes (BD Gentest), 1 mM NAPDH, 3.3 mM MgCl2 and 100 mM potassium phosphate buffer (pH 7.4). The production of the metabolite of each probe substrate was determined after incubation for 10 min at 37° C. Quantitation of the metabolite peak area ratio against an internal standard (tolbutamide) was determined by LC/MS/MS analysis following acetonitrile treatment of the incubations.
as §1, with “[…],” for “μm,”
as §2, with “maxima.” for “maxima and with 5 μM ketoconazole were defined as the minima”
as §3, §4, §5

[3] = target: T2, human CYP11B1 (Homo sapiens, UniProt P15538); experiment: IC50 vs CYP11B1 by cortisol synthesis in V79 cells; assay type: cell-based; settings: V79 cells expressing human CYP11B1, 1500 nM RSS, cortisol HTRF; test concentrations 0.5-10000 nM
T2 construct: expressed in transfected cells
T2 sequence (P15538 25-503): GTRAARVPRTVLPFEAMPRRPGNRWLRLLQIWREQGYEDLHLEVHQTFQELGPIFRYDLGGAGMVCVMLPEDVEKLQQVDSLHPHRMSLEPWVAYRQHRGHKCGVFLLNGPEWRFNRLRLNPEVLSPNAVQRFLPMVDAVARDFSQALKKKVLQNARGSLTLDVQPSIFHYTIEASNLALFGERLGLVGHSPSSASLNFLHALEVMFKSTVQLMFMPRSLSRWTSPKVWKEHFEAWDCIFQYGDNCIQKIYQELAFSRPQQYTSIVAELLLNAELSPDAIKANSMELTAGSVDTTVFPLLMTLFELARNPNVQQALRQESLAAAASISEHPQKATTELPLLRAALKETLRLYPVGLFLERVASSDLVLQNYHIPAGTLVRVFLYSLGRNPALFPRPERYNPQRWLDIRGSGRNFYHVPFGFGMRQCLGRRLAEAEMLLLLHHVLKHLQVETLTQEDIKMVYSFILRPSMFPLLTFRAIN
Protocol: Determination of IC50 vs CYP11B1/CYP11B2 by Measurement of Cortisol/Aldosterone Synthesis
This assay was performed in a standard 384-well plate design using cultured V79 cells stably expressing human CYP11B1 or human CYP11B2. Test compounds at 10 concentrations (for example, 10000, 3333.3, 1111.1, 370.4, 123.5, 41.2, 13.7, 4.6, 1.5 and 0.5 nM) were added in 384-well plate after the cell-seeding procedure. The incubation substrate contains 1500 nM RSS for CYP11B1 assay/750 nM DOC for CYP11B2 assay. The
Cortisol/Aldosterone production of cell culture supernatant was determined by Cortisol/Aldosterone HTRF kit after for about 15 hours incubation at RT (protect from light). IC50 values were calculated from the percent inhibition observed for each test compound at 10 concentrations.
The assay plate was read using Envision (Perkin Elmer, Waltham, Mass.) at 665 nm and 590 nm (using Filter Barcode of 217#, 205#; Mirror Barcode of 446#).
Data are analyzed using Assay Data Analyzer. All ratio data (665 nm/590 nm) are back calculated according to the standard curve, resulting in Cortisol/Aldosterone concentrations. IC50 values are reported as the Inflection Point (IP) of a four parameter fit of the titration data.
as §3
% Activity=100×{1−(Sample_back calculated Cortisol/Aldosterone concentration−LC_back calculated Cortisol/Aldosterone concentration)/(HC_back calculated Cortisol/Aldosterone concentration−LC_back calculated Cortisol/Aldosterone concentration)}

IC50 at 8 min [1] [µM] | pIC50 [2] | pIC50 [3] | Structure (SMILES)
0.0014 | 5.64 | 5.75 | C[C@H](c1ccc(F)cc1)n1cncc1CN1CCN(S(=O)(=O)c2cnc(N3CCNCC3)s2)CC1 [Compound 1]
0.001 | 5.49 | 6.67 | C[C@H](c1ccc(F)cc1)n1cncc1CN1CCN(S(=O)(=O)c2cnc(N3CCN(C)CC3)s2)CC1 [Compound 2]
0.0038 | 5.35 | 5.70 | C[C@H](c1ccc(F)cc1)n1cncc1CN1CCN(S(=O)(=O)c2cnc(N3CCN4C[C@H](O)C[C@H]4C3)s2)CC1 [Compound 5]
0.0014 | 5.71 | 5.81 | C[C@H](c1ccc(F)cc1)n1cncc1CN1CCN(S(=O)(=O)c2cnc(N3CCN4C[C@H](O)C[C@@H]4C3)s2)CC1 [Compound 6]
0.0018 | 5.46 | < 5.00 | C[C@H](c1ccc(F)cc1)n1cncc1CN1CCN(S(=O)(=O)c2cnc(N3CCC(S(C)(=O)=O)C3)s2)CC1 (stereo partly drawn) [Compound 8]
0.0028 | 5.39 | 5.69 | C[C@H](c1ccc(F)cc1)n1cncc1CN1CCN(S(=O)(=O)c2cnc(N3CCN(C4CCN(C)CC4)CC3)s2)CC1 [Compound 9]
< 0.00098 | 5.57 | 5.72 | C[C@H](c1ccc(F)cc1)n1cncc1CN1CCN(S(=O)(=O)c2cnc(N3CCN4C[C@@H](CN)C[C@H]4C3)s2)CC1 [Compound 10]
0.0017 | 5.85 | 5.73 | C[C@H](c1ccc(F)cc1)n1cncc1CN1CCN(S(=O)(=O)c2cnc(N3CCN4C[C@H](O)CC[C@H]4C3)s2)CC1 [Compound 19]
0.0041 | 5.35 | 5.99 | C[C@H](c1ccc(F)cc1)n1cncc1CN1CCN(S(=O)(=O)c2cnc(N3CC[C@@H](N4CCOCC4)[C@H](F)C3)s2)CC1 [Compound 20]
0.0019 | 5.87 | 5.37 | C[C@H](c1ccc(F)cc1)n1cncc1CN1CCN(S(=O)(=O)c2cnc(N3CCN4C[C@H](O)CC4(C)C3)s2)CC1 (stereo partly drawn) [Compound 24]
0.0015 | 5.37 | 5.52 | C[C@H](c1ccc(F)cc1)n1cncc1CN1CCN(S(=O)(=O)c2cnc(N3CCN4C(=O)OC[C@H]4C3)s2)CC1 [Compound 26]
0.0026 | 5.75 | 5.80 | C[C@H](c1ccc(F)cc1)n1cncc1CN1CCN(S(=O)(=O)c2cnc(N3CCN4CCC(O)[C@H]4C3)s2)CC1 (stereo partly drawn) [Compound 27]

Further lines, the compound ahead of its results:

Structure (SMILES) | IC50 at 8 min [1] [µM] | pIC50 [2] | pIC50 [3]
CC1CN2C[C@H](O)C[C@H]2CN1c1ncc(S(=O)(=O)N2CCN(Cc3cncn3[C@H](C)c3ccc(F)cc3)CC2)s1 (single isomer, unassigned) [Compound 22] | 0.0013 | 5.24 | 5.93
C[C@H](c1ccc(F)cc1)n1cncc1CN1CCN(S(=O)(=O)c2cnc(N3CCC4(CC3)CNC(=O)N4)s2)CC1 [Compound 3] | 0.0027 | 5.83 | < 5.00
C[C@H](c1ccc(C#N)cc1)n1cncc1CN1CCN(S(=O)(=O)c2cnc(Nc3ccc(C(F)(F)F)cn3)s2)CC1 [Compound 4] | < 0.0001 | 5.73 | 6.65
C[C@H](c1ccc(F)cc1)n1cncc1CN1CCN(S(=O)(=O)c2cnc(N3CC[C@@H](N)[C@H](F)C3)s2)CC1 [Compound 11] | < 0.00098 | 5.67 | 5.96
C[C@H](c1ccc(F)cc1)n1cncc1CN1CCN(S(=O)(=O)c2cnc(N3CC[C@@H]4NCCO[C@H]4C3)s2)CC1 [Compound 15] | 0.0012 | 5.61 | 5.77
C[C@H](c1ccc(F)cc1)n1cncc1CN1CCN(S(=O)(=O)c2cnc(N3CC(=O)N4C[C@H](O)C[C@H]4C3)s2)CC1 [Compound 16] | 0.0052 | 5.04 | < 5.00
C[C@H](c1ccc(F)cc1)n1cncc1CN1CCN(S(=O)(=O)c2cnc(NCC(F)CN)s2)CC1 (stereo partly drawn) [Compound 17] | 0.0017 | 5.61 | < 5.00
C[C@H](c1ccc(F)cc1)n1cncc1CN1CCN(S(=O)(=O)c2cnc(N3CCN4C[C@H](O)C[C@H]4C3=O)s2)CC1 [Compound 18] | 0.0011 | 5.64 | 5.59
C[C@H](c1ccc(F)cc1)n1cncc1CN1CCN(S(=O)(=O)c2cnc(N3C[C@@H]4C[C@@H](O)CN4C[C@@H]3C)s2)CC1 [Compound 21] | 0.0019 | 5.94 | 5.41
CC1CN(c2ncc(S(=O)(=O)N3CCN(Cc4cncn4[C@H](C)c4ccc(F)cc4)CC3)s2)C[C@@H]2C[C@@H](O)CN12 (stereo partly drawn) [Compound 23] | 0.0016 | 5.30 | 5.91
C[C@H](c1ccc(F)cc1)n1cncc1CN1CCN(S(=O)(=O)c2cnc(N3CCC(N)(CO)CC3)s2)CC1 [Compound 25] | 0.0019 | 5.01 | 5.16
C[C@H](c1ccc(F)cc1)n1cncc1CN1CCN(S(=O)(=O)c2ccc(N3CCNCC3)cn2)CC1 [Compound 28] | 0.0044 | 5.18 | 5.45
C[C@H](c1ccc(F)cc1)n1cncc1CN1CCN(S(=O)(=O)c2cncc(N3CCNCC3)c2)CC1 [Compound 29] | 0.0029 | < 5.00 | 5.84
